Usually stoichiometry N stands for the number of molecules, sites or subunits per partner or assembly. By Kd is commonly meant the free concentration of one partner at which half of the binding sites on the other are occupied at equilibrium, for simple one-to-one binding.

Assay [1] deals with P2X3 receptor (Canis lupus), first five N-terminal and last 33 C-terminal residues deleted (Canis lupus sp.). Kind of assay: cryo-EM structure; camlipixant-bound P2X3 reconstituted into peptidisc; camlipixant at a molar ratio of 1:5, 30 min on ice; C3 symmetry.
Assay [2] has as its target T1, P2X3 receptor (Canis lupus, UniProt A0A8I3S575).
T1 construct: gene P2RX3; deletion of five first residues in the N-terminal region and the 33 last residues in the C-terminal region; homotrimer
T1 sequence (A0A8I3S575 6-364): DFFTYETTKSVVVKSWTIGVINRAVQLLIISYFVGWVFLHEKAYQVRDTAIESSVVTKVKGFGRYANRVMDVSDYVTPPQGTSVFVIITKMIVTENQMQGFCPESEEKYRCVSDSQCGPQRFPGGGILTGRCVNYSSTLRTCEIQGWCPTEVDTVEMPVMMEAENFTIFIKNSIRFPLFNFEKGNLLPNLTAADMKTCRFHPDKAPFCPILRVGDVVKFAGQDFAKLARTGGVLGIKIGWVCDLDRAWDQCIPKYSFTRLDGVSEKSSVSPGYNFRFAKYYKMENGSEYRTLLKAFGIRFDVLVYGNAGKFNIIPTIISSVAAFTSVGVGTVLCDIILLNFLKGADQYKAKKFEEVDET
Kind of assay: ITC Kd; cryo-EM structure of the complex in peptidisc; also calcium influx IC50 […] in cells. In kind it is binding.

Assay [3] concerns the target T1, P2X3 receptor. Kind of assay: MST Kd; cryo-EM structure of the P2X3–ATP complex. In kind it is binding.

In the case of “P2X3 receptor (Canis lupus), first five N-terminal and last 33 C-terminal residues deleted”, the stoichiometry N in assay [1] stood at 3.

With `CNC(=O)c1cc(F)c(-c2nc3cc(C)ccn3c2C[C@H]2CN(C(=O)OC)CCO2)c(F)c1` [camlipixant], the Kd in assay [2] was found to be 0.1 µM.

In assay [3], `Nc1ncnc2c1ncn2[C@@H]1O[C@H](COP(=O)(O)OP(=O)(O)OP(=O)(O)O)[C@@H](O)[C@H]1O` [ATP] registered a Kd of 2 µM.
